Test results from US20200354426A1 (MEDIMMUNE LIMITED, priority 2016, published 2020).
Numbered stars: 1 amine (or outer) side, 2 acyl side, 3 side chain; on linkers, the order of the positions; unused ones are H or OH. Side chains are listed from the residue outwards. Peptide text beside a SMILES is read from it. * marks the point of attachment. γGlu = O=C(O)[C@H](CCC(=O)[*:2])N[*:1]; Palmitoyl = CCCCCCCCCCCCCCCC(=O)*; Ahx = NCCCCCC(=O)O; βAla = NCCC(=O)O

Experiments:
Experiment in all cases: cAMP activity assay in assay medium (assay 1)
Assay type in all cases: cell-based
[1] = molecular target: T1, Human GlucR (Homo sapiens, UniProt P47871); details: assay medium; Table 4; read-out: hGlucR EC50
T1 construct: expressed in transfected cells
T1 sequence (P47871 26-477): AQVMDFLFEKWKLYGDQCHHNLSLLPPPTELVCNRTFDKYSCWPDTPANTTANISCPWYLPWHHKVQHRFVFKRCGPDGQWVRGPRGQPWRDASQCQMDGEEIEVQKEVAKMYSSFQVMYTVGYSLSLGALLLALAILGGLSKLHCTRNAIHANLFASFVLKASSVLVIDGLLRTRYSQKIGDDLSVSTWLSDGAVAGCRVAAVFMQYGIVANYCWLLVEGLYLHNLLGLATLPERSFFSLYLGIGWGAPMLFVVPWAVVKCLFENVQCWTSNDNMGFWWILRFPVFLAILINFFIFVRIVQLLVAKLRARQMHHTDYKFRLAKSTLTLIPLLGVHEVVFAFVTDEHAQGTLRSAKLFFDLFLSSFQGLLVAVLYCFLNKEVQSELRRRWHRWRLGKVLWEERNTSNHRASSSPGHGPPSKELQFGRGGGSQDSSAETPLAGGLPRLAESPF
Source text: (§1) Biological Activity of Peptides in Cell-Based cAMP Activity Assay (Assay 1):
(§2) All sample dilutions were made in duplicate.

[2] = molecular target: T2, Human GIPr (Homo sapiens, UniProt P48546); details: assay medium; Table 4; read-out: hGIPR EC50
T2 construct: expressed in transfected cells
T2 sequence (P48546 22-466): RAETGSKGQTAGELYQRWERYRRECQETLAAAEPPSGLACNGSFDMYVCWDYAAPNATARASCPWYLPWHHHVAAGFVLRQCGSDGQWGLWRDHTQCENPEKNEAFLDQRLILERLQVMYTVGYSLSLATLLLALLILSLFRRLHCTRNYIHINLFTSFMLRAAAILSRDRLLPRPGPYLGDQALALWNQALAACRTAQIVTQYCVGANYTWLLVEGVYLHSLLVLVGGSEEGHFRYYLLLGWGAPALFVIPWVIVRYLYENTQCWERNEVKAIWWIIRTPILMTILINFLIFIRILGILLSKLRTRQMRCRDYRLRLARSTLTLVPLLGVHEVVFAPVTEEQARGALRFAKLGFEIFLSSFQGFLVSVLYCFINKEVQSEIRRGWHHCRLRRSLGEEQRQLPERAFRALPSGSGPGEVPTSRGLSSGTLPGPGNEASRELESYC
Source text: as §1, §2

[3] = molecular target: Human GLP1R (Homo sapiens, UniProt P43220); parameters: expressed in transfected cells; details: assay medium; Table 4; read-out: hGLP1R EC50
Chain of Human GLP1R (P43220 24-463): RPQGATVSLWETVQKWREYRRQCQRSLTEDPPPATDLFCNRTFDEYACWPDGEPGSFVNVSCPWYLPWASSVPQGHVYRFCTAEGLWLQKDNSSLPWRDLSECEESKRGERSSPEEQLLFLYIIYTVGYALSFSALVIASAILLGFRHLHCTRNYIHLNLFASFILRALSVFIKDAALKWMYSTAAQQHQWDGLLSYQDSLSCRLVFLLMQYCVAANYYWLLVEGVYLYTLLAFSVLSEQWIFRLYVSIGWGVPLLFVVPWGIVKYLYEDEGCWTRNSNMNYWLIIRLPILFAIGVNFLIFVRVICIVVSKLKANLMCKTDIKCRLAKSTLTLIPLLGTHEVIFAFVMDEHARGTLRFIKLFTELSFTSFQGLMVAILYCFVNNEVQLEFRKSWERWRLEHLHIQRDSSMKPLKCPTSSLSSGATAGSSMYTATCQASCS
Source text: as §1, §2

EC50 [1] [nM] | EC50 [2] [nM] | EC50 [3] [nM] | SMILES
0.0942 | 1040 | 3.16 | CCCCCCCCCCCCCCCC(=O)N[C@@H](CCC(=O)NCCCC[C@H](NC(=O)CNC(=O)CNC(=O)[C@H](C)NC(=O)[C@H](CCC(=O)O)NC(=O)[C@H](CC(C)C)NC(=O)[C@H](Cc1c[nH]c2ccccc12)NC(=O)[C@H](CCC(N)=O)NC(=O)[C@@H](NC(=O)[C@H](Cc1ccccc1)NC(=O)[C@H](CC(=O)O)NC(=O)[C@H](CCC(N)=O)NC(=O)[C@H](C)NC(=O)[C@H](CCCNC(=N)N)NC(=O)[C@H](CCCNC(=N)N)NC(=O)[C@H](CO)NC(=O)[C@H](CC(=O)O)NC(=O)[C@H](CC(C)C)NC(=O)[C@H](Cc1ccc(O)cc1)NC(=O)[C@H](CCCCN)NC(=O)[C@H](CO)NC(=O)[C@H](Cc1ccc(O)cc1)NC(=O)[C@H](CC(=O)O)NC(=O)[C@H](CO)NC(=O)[C@@H](NC(=O)[C@H](Cc1ccccc1)NC(=O)[C@@H](NC(=O)CNC(=O)[C@H](CCC(N)=O)NC(=O)[C@H](CO)NC(=O)[C@@H](N)Cc1c[nH]cn1)[C@@H](C)O)[C@@H](C)O)C(C)C)C(N)=O)C(=O)O [g747]
0.00465 | 47.9 | 0.0702 | CCCCCCCCCCCCCCCC(=O)N[C@@H](CCC(=O)NCCCC[C@H](NC(=O)[C@H](CO)NC(=O)[C@H](CC(=O)O)NC(=O)[C@H](CC(C)C)NC(=O)[C@H](Cc1ccc(O)cc1)NC(=O)[C@H](CCCCN)NC(=O)[C@H](CO)NC(=O)[C@H](Cc1ccc(O)cc1)NC(=O)[C@H](CC(=O)O)NC(=O)[C@H](CO)NC(=O)[C@@H](NC(=O)[C@H](Cc1ccccc1)NC(=O)[C@@H](NC(=O)CNC(=O)[C@H](CCC(N)=O)NC(=O)[C@H](CO)NC(=O)[C@@H](N)Cc1c[nH]cn1)[C@@H](C)O)[C@@H](C)O)C(=O)N[C@@H](CCCNC(=N)N)C(=O)N[C@@H](C)C(=O)N[C@@H](CCCNC(=N)N)C(=O)N[C@@H](CC(=O)O)C(=O)N[C@@H](Cc1ccccc1)C(=O)N[C@H](C(=O)N[C@@H](CCC(=O)O)C(=O)N[C@@H](Cc1c[nH]c2ccccc12)C(=O)N[C@@H](CC(C)C)C(=O)N[C@H](C(=O)N[C@@H](C)C(=O)NCC(=O)NCC(N)=O)C(C)C)C(C)C)C(=O)O [g766] (H-HSQGTFTSDYSKYLDSK([γGlu-Palmitoyl])RARDFVEWLVAGG-NH2; N-terminus assumed)
0.00551 | 37.1 | 0.0175 | CCCCCCCCCCCCCCCC(=O)NCCCCCC(=O)NCCCC[C@H](NC(=O)[C@H](CO)NC(=O)[C@H](CC(=O)O)NC(=O)[C@H](CC(C)C)NC(=O)[C@H](Cc1ccc(O)cc1)NC(=O)[C@H](CCC(=O)O)NC(=O)[C@H](CO)NC(=O)[C@H](Cc1ccc(O)cc1)NC(=O)[C@H](CC(=O)O)NC(=O)[C@H](CO)NC(=O)[C@@H](NC(=O)[C@H](Cc1ccccc1)NC(=O)[C@@H](NC(=O)CNC(=O)[C@H](CCC(N)=O)NC(=O)[C@H](CO)NC(=O)[C@@H](N)Cc1c[nH]cn1)[C@@H](C)O)[C@@H](C)O)C(=O)N[C@@H](CCCNC(=N)N)C(=O)N[C@@H](C)C(=O)N[C@@H](CCCNC(=N)N)C(=O)N[C@@H](CC(=O)O)C(=O)N[C@@H](Cc1ccccc1)C(=O)N[C@H](C(=O)N[C@@H](CCC(=O)O)C(=O)N[C@@H](Cc1c[nH]c2ccccc12)C(=O)N[C@@H](CC(C)C)C(=O)N[C@@H](CCC(=O)O)C(=O)N[C@@H](CCCNC(=N)N)C(=O)NCC(=O)NCC(N)=O)C(C)C [g771] (H-HSQGTFTSDYSEYLDSK([Ahx-Palmitoyl])RARDFVEWLERGG-NH2; N-terminus assumed)
0.184 | 1540 | 0.292 | CCCCCCCCCCCCCCCC(=O)N[C@@H](CCC(=O)NCCCC[C@H](NC(=O)[C@H](CO)NC(=O)[C@H](CC(=O)O)NC(=O)[C@H](CC(C)C)NC(=O)[C@H](Cc1ccc(O)cc1)NC(=O)[C@H](CCC(=O)O)NC(=O)[C@H](CO)NC(=O)[C@H](Cc1ccc(O)cc1)NC(=O)[C@H](CC(=O)O)NC(=O)[C@H](CO)NC(=O)[C@@H](NC(=O)[C@H](Cc1ccccc1)NC(=O)[C@@H](NC(=O)CNC(=O)[C@H](CCC(N)=O)NC(=O)[C@H](CO)NC(=O)[C@@H](N)Cc1c[nH]cn1)[C@@H](C)O)[C@@H](C)O)C(=O)N[C@@H](CCCNC(=N)N)C(=O)N[C@@H](C)C(=O)N[C@@H](CCCNC(=N)N)C(=O)N[C@@H](CC(=O)O)C(=O)N[C@@H](Cc1ccccc1)C(=O)N[C@H](C(=O)N[C@@H](C)C(=O)N[C@@H](Cc1c[nH]c2ccccc12)C(=O)N[C@@H](CC(C)C)C(=O)N[C@@H](CCC(=O)O)C(=O)N[C@@H](CCCNC(=N)N)C(=O)NCC(=O)NCC(N)=O)C(C)C)C(=O)O [g772] (H-HSQGTFTSDYSEYLDSK([γGlu-Palmitoyl])RARDFVAWLERGG-NH2; N-terminus assumed)
0.00124 | 4.53 | 0.0274 | CCCCCCCCCCCCCCCC(=O)N[C@@H](CCC(=O)NCCCC[C@H](NC(=O)[C@H](Cc1ccc(O)cc1)NC(=O)[C@H](CCCCN)NC(=O)[C@H](CO)NC(=O)[C@H](Cc1ccc(O)cc1)NC(=O)[C@H](CC(=O)O)NC(=O)[C@H](CO)NC(=O)[C@@H](NC(=O)[C@H](Cc1ccccc1)NC(=O)[C@@H](NC(=O)CNC(=O)[C@H](CCC(N)=O)NC(=O)[C@H](CO)NC(=O)[C@@H](N)Cc1c[nH]cn1)[C@@H](C)O)[C@@H](C)O)C(=O)N[C@@H](CC(=O)O)C(=O)N[C@@H](CO)C(=O)N[C@@H](CCC(=O)O)C(=O)N[C@@H](CCCNC(=N)N)C(=O)N[C@@H](C)C(=O)N[C@@H](CCCNC(=N)N)C(=O)N[C@@H](CC(=O)O)C(=O)N[C@@H](Cc1ccccc1)C(=O)N[C@H](C(=O)N[C@@H](C)C(=O)N[C@@H](Cc1c[nH]c2ccccc12)C(=O)N[C@@H](CC(C)C)C(=O)N[C@H](C(=O)N[C@@H](C)C(=O)NCC(=O)NCC(N)=O)C(C)C)C(C)C)C(=O)O [g777] (H-HSQGTFTSDYSKYK([γGlu-Palmitoyl])DSERARDFVAWLVAGG-NH2; N-terminus assumed)
0.00285 | 402 | 0.104 | CCCCCCCCCCCCCCCC(=O)N[C@@H](CCC(=O)NCCCC[C@H](NC(=O)[C@H](CC(=O)O)NC(=O)[C@H](CC(C)C)NC(=O)[C@H](Cc1ccc(O)cc1)NC(=O)[C@H](CCCCN)NC(=O)[C@H](CO)NC(=O)[C@H](Cc1ccc(O)cc1)NC(=O)[C@H](CC(=O)O)NC(=O)[C@H](CO)NC(=O)[C@@H](NC(=O)[C@H](Cc1ccccc1)NC(=O)[C@@H](NC(=O)CNC(=O)[C@H](CCC(N)=O)NC(=O)[C@H](CO)NC(=O)[C@@H](N)Cc1c[nH]cn1)[C@@H](C)O)[C@@H](C)O)C(=O)N[C@@H](CCCNC(=N)N)C(=O)N[C@@H](CCCNC(=N)N)C(=O)N[C@@H](C)C(=O)N[C@@H](CCCNC(=N)N)C(=O)N[C@@H](CC(=O)O)C(=O)N[C@@H](Cc1ccccc1)C(=O)N[C@H](C(=O)N[C@@H](C)C(=O)N[C@@H](Cc1c[nH]c2ccccc12)C(=O)N[C@@H](CC(C)C)C(=O)N[C@@H](CCC(=O)O)C(=O)N[C@@H](C)C(=O)NCC(=O)NCC(N)=O)C(C)C)C(=O)O [g781] (H-HSQGTFTSDYSKYLDK([γGlu-Palmitoyl])RRARDFVAWLEAGG-NH2; N-terminus assumed)
0.156 | 1430 | 0.0254 | CCCCCCCCCCCCCCCC(=O)N[C@@H](CCC(=O)NCCCC[C@H](NC(=O)[C@H](CCCNC(=N)N)NC(=O)[C@H](CO)NC(=O)[C@H](CC(=O)O)NC(=O)[C@H](CC(C)C)NC(=O)[C@H](Cc1ccc(O)cc1)NC(=O)[C@H](CCCCN)NC(=O)[C@H](CO)NC(=O)[C@H](Cc1ccc(O)cc1)NC(=O)[C@H](CC(=O)O)NC(=O)[C@H](CO)NC(=O)[C@@H](NC(=O)[C@H](Cc1ccccc1)NC(=O)[C@@H](NC(=O)CNC(=O)[C@H](CCC(N)=O)NC(=O)[C@H](CO)NC(=O)[C@@H](N)Cc1c[nH]cn1)[C@@H](C)O)[C@@H](C)O)C(=O)N[C@@H](C)C(=O)N[C@@H](CCCNC(=N)N)C(=O)N[C@@H](CC(=O)O)C(=O)N[C@@H](Cc1ccccc1)C(=O)N[C@H](C(=O)N[C@@H](C)C(=O)N[C@@H](Cc1c[nH]c2ccccc12)C(=O)N[C@@H](CC(C)C)C(=O)N[C@@H](CCC(=O)O)C(=O)N[C@@H](C)C(=O)NCC(=O)NCC(N)=O)C(C)C)C(=O)O [g782] (H-HSQGTFTSDYSKYLDSRK([γGlu-Palmitoyl])ARDFVAWLEAGG-NH2; N-terminus assumed)
0.0911 | 846 | 0.0424 | CCCCCCCCCCCCCCCC(=O)NCCC(=O)NCCCC[C@H](NC(=O)[C@H](CO)NC(=O)[C@H](CC(=O)O)NC(=O)[C@H](CC(C)C)NC(=O)[C@H](Cc1ccc(O)cc1)NC(=O)[C@H](CCC(=O)O)NC(=O)[C@H](CO)NC(=O)[C@H](Cc1ccc(O)cc1)NC(=O)[C@H](CC(=O)O)NC(=O)[C@H](CO)NC(=O)[C@@H](NC(=O)[C@H](Cc1ccccc1)NC(=O)[C@@H](NC(=O)CNC(=O)[C@H](CCC(N)=O)NC(=O)[C@H](CO)NC(=O)[C@@H](N)Cc1c[nH]cn1)[C@@H](C)O)[C@@H](C)O)C(=O)N[C@@H](CCCNC(=N)N)C(=O)N[C@@H](C)C(=O)N[C@@H](CCCNC(=N)N)C(=O)N[C@@H](CC(=O)O)C(=O)N[C@@H](Cc1ccccc1)C(=O)N[C@H](C(=O)N[C@@H](C)C(=O)N[C@@H](Cc1c[nH]c2ccccc12)C(=O)N[C@@H](CC(C)C)C(=O)N[C@@H](CCC(=O)O)C(=O)N[C@@H](C)C(=O)NCC(=O)NCC(N)=O)C(C)C [g783] (H-HSQGTFTSDYSEYLDSK([βAla-Palmitoyl])RARDFVAWLEAGG-NH2; N-terminus assumed)
